Consider 13 molecules from US20130109682A1, “CYCLIC ETHER COMPOUNDS USEFUL AS KINASE INHIBITORS” (NOVARTIS AG, priority 2010, published 2013).

Holding throughout (assay type): biochemical
One assay has as its target PIM2 (Homo sapiens, UniProt Q9P1W9). Put plainly: Pim 2 AlphaScreen assay (high ATP). The note with it: read-out: Pim2 IC50. The method in brief:
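IC50 values rest on detection of phosphorylated Bad peptide: after a ~2 h kinase reaction, an EDTA stop buffer containing anti-phospho Ser/Thr antibody, Protein A and streptavidin AlphaScreen beads was added and read after overnight dark incubation. ATP was high (11-125× Km), with 2.5% DMSO in pH 7.5 Hepes buffer containing MgCl2, BSA, Tween-20 and DTT.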

Another assay addresses PDGFRaV561D kinase (Homo sapiens, UniProt P16234, V561D). Put plainly: PDGFRaV561D kinase inhibition assay (LanthaScreen TR-FRET). The note with it: read-out: PDGFRa IC50. The method, then: PDGFRaV561D Kinase Inhibition Assay
(§1) LanthaScreen™ is the detection of Time-Resolved Fluorescence Resonance Energy Transfer (TR-FRET) using lanthanide chelates to measure interactions between various binding partners. The application of TR-FRET to assay kinase activity was first described by Mathis (1995). A TR-FRET assay was used to measure PDGFRaV561D kinase inhibitory activity. The assay panel was run on a Biomek FX liquid handling workstations. To the assay plates containing […] compound or control solutions, 4.5 μL of buffer A (50 mM TRIS-HCl pH 7.4, 2 mM DTT, 0.02% Tween 20, 0.02 mM Na3VO4, H2O nanpure) including a generic concentration of ATP (2 μM f.c.) was added per well, followed by 4.54 of buffer B (4 uM ATP in Buffer A) including a generic concentration of polyEAY (50 nM f.c.), PDGFRaV561D kinase, and divalent cations. Final concentration of kinase and cations were: [PDGFRaV561D kinase]=4.4 nM, [Mn]=10 mM. After 1 hour of incubation the kinase reactions were stopped by the addition of 4.5 μL of stop solution D (50 mM EDTA, 20 mM TRIS-HCl pH 7.4, 0.04% NP-40) immediately followed by 4.5 μL of buffer A (50 mM TRIS-HCl pH 7.4, 2 mM DTT, 0.02% Tween 20, 0.02 mM Na3VO4, H2O nanpure) including the Tb-labeled P-20 antibody to give a total detection volume of 184. After an incubation time of 45 min in the dark, the plates were transferred into the Pherastar fluorescence reader for counting. The effect of compound on the enzymatic activity was obtained from the linear progress curves and determined from one reading (end point measurement).

Another assay addresses PKCα (Homo sapiens, UniProt P17252). The assay is described as follows: PKCα kinase Caliper assay. The method, then: PKCα and cABLT315 Kinase Caliper Assays
Assays were performed in 384 well microtiter plates. Each assay plate contained 8-point serial dilutions for test compounds, as well as two 16-point serial dilutions of staurosporine as reference compound, plus 16 high- and 16 low controls. Liquid handling and incubation steps were done on a Thermo CatX workstation equipped with a Innovadyne Nanodrop Express. Between pipetting steps, tips were cleaned in wash cycles using wash buffer. Plates with terminated kinase reactions were transferred to the Caliper LC3000 workstations for reading. Phosphorylated and unphosphorylated peptides were separated using the Caliper microfluidic mobilitishift technology and Kinase activities were calculated from the amounts of formed phospho-peptide.
1. 0.05 μA Compound (start with 1.8 mM in 90% DMSO/10% H2O)
2. +4.5 μl 2× peptide/ATP solution
3. +4.5 μl 2× enzyme solution
4. Incubate for 60 min at 30° C.
4. +16 μl stop/run buffer
Independent of the kinase, all reactions were done performed in 50 mM HEPES, pH 7.5, 1 mM DTT, 0.02% Tween20, 0.02% BSA, and 0.6% DMSO.

Another assay has as its target FGFR3 kinase (Homo sapiens, UniProt P22607). The assay is described as follows: FGFR3 kinase inhibition assay (LanthaScreen TR-FRET). On the procedure:
FGFR3 Kinase Inhibition Assay
as §1, with “FGFR3” for “PDGFRaV561D”, “4.5 μL” for “4.54”, “[FGFR3 kinase]=0.20” for “[PDGFRaV561D kinase]=4.4”, “[Mg]=3 mM, [Mn]=3” for “[Mn]=10”, “18 μL.” for “184.”

Setting [1] is: PKCα Caliper assay, read-out: PKC IC50.

Molecules are shown by their SMILES. Read-outs that look alike come from different tables or passages of the source.

Sequence of PIM2 (Q9P1W9 whole entry): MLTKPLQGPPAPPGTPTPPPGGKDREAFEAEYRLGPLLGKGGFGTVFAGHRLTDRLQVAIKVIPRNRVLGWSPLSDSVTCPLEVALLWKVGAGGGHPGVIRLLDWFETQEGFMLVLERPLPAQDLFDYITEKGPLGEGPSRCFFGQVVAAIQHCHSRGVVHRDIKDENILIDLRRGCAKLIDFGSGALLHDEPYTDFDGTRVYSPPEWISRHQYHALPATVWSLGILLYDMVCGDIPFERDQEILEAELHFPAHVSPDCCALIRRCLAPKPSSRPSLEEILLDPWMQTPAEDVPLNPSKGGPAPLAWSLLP
Sequence of FGFR3 kinase (P22607 23-806): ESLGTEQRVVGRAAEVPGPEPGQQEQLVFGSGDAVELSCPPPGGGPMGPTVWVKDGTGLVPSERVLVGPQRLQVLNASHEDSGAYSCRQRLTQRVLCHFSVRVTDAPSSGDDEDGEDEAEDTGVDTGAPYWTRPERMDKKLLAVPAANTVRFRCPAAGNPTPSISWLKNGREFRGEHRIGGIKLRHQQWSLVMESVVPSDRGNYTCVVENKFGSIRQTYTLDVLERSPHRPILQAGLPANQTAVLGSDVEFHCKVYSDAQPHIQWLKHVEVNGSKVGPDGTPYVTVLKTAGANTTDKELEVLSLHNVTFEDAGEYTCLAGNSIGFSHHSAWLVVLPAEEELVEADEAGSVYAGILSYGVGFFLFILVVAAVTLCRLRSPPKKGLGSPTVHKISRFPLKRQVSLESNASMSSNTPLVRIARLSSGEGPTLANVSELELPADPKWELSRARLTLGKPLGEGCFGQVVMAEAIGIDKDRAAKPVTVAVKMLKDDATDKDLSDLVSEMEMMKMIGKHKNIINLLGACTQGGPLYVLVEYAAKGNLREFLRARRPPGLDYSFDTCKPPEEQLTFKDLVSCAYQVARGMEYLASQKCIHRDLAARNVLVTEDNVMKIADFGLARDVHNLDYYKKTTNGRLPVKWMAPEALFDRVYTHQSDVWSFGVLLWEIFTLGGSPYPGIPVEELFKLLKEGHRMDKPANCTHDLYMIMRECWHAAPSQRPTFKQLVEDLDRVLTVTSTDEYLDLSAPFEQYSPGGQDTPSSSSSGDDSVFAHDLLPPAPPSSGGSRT
Sequence of PDGFRaV561D kinase (P16234 24-1089 V561D): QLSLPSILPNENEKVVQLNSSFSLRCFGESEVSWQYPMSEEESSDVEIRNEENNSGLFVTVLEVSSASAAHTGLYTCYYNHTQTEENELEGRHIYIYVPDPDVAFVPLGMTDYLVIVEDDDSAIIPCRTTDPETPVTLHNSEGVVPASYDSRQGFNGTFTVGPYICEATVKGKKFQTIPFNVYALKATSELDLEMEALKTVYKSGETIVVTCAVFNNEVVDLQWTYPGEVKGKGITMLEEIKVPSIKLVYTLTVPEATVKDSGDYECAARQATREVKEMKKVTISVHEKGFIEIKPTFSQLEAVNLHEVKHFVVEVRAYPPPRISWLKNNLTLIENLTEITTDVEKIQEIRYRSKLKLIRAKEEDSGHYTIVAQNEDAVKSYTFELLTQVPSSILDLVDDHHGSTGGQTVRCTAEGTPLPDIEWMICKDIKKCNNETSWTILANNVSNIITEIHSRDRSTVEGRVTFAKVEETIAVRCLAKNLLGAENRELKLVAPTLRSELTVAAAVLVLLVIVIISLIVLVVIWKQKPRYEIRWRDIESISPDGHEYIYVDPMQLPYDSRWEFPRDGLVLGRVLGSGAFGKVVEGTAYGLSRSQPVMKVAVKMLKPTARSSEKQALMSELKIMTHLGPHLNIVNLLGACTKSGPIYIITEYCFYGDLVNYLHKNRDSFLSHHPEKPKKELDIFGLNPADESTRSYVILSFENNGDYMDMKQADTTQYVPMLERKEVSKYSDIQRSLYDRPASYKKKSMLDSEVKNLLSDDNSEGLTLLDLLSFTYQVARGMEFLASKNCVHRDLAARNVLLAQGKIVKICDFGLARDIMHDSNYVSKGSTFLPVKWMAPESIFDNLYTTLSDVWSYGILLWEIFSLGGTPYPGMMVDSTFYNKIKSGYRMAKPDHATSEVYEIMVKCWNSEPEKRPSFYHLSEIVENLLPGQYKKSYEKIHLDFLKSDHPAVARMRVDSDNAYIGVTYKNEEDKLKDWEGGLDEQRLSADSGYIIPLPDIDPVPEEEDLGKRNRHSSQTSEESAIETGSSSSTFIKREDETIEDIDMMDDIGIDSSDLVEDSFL

For the molecule `Nc1ncc(-c2ccccc2)nc1C(=O)Nc1cnccc1[C@@H]1C[C@H](N)[C@]2(O)CCC[C@@H]2O1` [Example 185, 3-amino-N-(4-((2S,4S,4aR,7aS)-4-amino-4a-hydroxyoctahydrocyclopenta[b]pyran-2-yl)pyridin-3-yl)-6-phenylpyrazine-2-carboxamide], the IC50 on PIM2 was 6430 nM; on PDGFRaV561D kinase, 4100 nM; on PKCα (setting [1]) it was 650 nM; against FGFR3 kinase, over 10000 nM.

For `CC[C@]1(O)[C@H](N)C[C@H](c2ccncc2NC(=O)c2nc(-c3ccccc3)cnc2N)O[C@@H]1C` [Example 187, 3-amino-N-(4-((2R,4R,5S,6R)-4-amino-5-ethyl-5-hydroxy-6-methyltetrahydro-2H-pyran-2-yl)pyridin-3-yl)-6-phenylpyrazine-2-carboxamide], the IC50 on PIM2 was found to be 86.3 nM; at PDGFRaV561D kinase, 25 nM; at PKCα (setting [1]), 50 nM; on FGFR3 kinase it was 830 nM.

As to `CC[C@]1(O)[C@H](C)O[C@H](c2ccncc2NC(=O)c2nc(-c3ccccc3)cnc2N)C[C@@H]1N` [Example 189, 3-amino-N-(4-((2S,4S,5R,6S)-4-amino-5-ethyl-5-hydroxy-6-methyltetrahydro-2H-pyran-2-yl)pyridin-3-yl)-6-phenylpyrazine-2-carboxamide], the IC50 was determined as 25000 nM at PIM2, 1700 nM on PDGFRaV561D kinase, 710 nM at PKCα (setting [1]) and 7400 nM against FGFR3 kinase.

As for `C[C@H]1O[C@@H](c2ccncc2NC(=O)c2ccc(F)c(-c3c(F)cccc3F)n2)C[C@@H](N)[C@]1(C)O` [Example 219, N-(4-((2R,4R,5S,6R)-4-amino-5-hydroxy-5,6-dimethyltetrahydro-2H-pyran-2-yl)pyridin-3-yl)-6-(2,6-difluorophenyl)-5-fluoropicolinamide], the 50% inhibitory concentration (IC50) on PIM2 was 8.5 nM; at PDGFRaV561D kinase, 630 nM; at PKCα (setting [1]), over 10000 nM; on FGFR3 kinase, over 10000 nM.

`CC(C)(C)[C@@H]1O[C@H](c2ccncc2NC(=O)c2nc(-c3ccccc3)cnc2N)C[C@@H](N)[C@H]1O` [Example 227, 3-amino-N-(4-((2S,4R,5R,6S)-4-amino-6-tert-butyl-5-hydroxytetrahydro-2H-pyran-2-yl)pyridin-3-yl)-6-phenylpyrazine-2-carboxamide]: the IC50 at PIM2 worked out at 549 nM; on PDGFRaV561D kinase, 1300 nM; on PKCα (setting [1]) it was 55 nM; against FGFR3 kinase it was 2400 nM.

On to `C[C@H]1O[C@@H](c2ccncc2NC(=O)c2nc(-c3ccccc3)cnc2N)C[C@@H](N)[C@]1(C)O` [Example 228, 3-amino-N-(4-((2R,4R,5S,6R)-4-amino-5-hydroxy-5,6-dimethyltetrahydro-2H-pyran-2-yl)pyridin-3-yl)-6-phenylpyrazine-2-carboxamide], for which the IC50 was 120 nM at PIM2, 37 nM at PDGFRaV561D kinase, 76 nM on PKCα (setting [1]) and 320 nM against FGFR3 kinase.

In the case of `C[C@@H]1O[C@H](c2ccncc2NC(=O)c2nc(-c3ccccc3)cnc2N)C[C@H](N)[C@@]1(C)O` [Example 229, 3-amino-N-(4-((2S,4S,5R,6S)-4-amino-5-hydroxy-5,6-dimethyltetrahydro-2H-pyran-2-yl)pyridin-3-yl)-6-phenylpyrazine-2-carboxamide], the half-maximal inhibitory concentration (IC50) at PIM2 amounted to 3310 nM; on PDGFRaV561D kinase it was 1000 nM; at PKCα (setting [1]) it was 370 nM; on FGFR3 kinase, 3400 nM.

`Nc1cc(F)c(-c2c(F)cccc2F)nc1C(=O)Nc1cnccc1[C@H]1C[C@@H](N)[C@@]2(O)CCCC[C@H]2O1` [Example 238, 3-amino-N-(4-((2R,4R,4aS,8aR)-4-amino-4a-hydroxyoctahydro-2H-chromen-2-yl)pyridin-3-yl)-6-(2,6-difluorophenyl)-5-fluoropicolinamide]: the IC50 is 1.8 nM on PIM2, 7500 nM on PDGFRaV561D kinase, over 10000 nM against PKCα and over 10000 nM against FGFR3 kinase.

Consider `CC(C)[C@@H]1O[C@H](c2ccncc2NC(=O)c2nc(-c3ccccc3)cnc2N)C[C@H](N)[C@H]1O` [Example 240, 3-amino-N-(4-((2S,4S,5R,6S)-4-amino-5-hydroxy-6-isopropyltetrahydro-2H-pyran-2-yl)pyridin-3-yl)-6-phenylpyrazine-2-carboxamide], for which the IC50 at PIM2 was 2770 nM; on PDGFRaV561D kinase it was 7300 nM; on PKCα (setting [1]), 290 nM; at FGFR3 kinase it was over 10000 nM.

`COc1cc(F)c(-c2nc(C(=O)Nc3cnccc3[C@H]3C[C@@H](N)[C@](C)(O)[C@@H](C)O3)ccc2F)c(F)c1` [Example 242, N-(4-((2R,4R,5S,6R)-4-amino-5-hydroxy-5,6-dimethyltetrahydro-2H-pyran-2-yl)pyridin-3-yl)-6-(2,6-difluoro-4-methoxyphenyl)-5-fluoropicolinamide]: the IC50 on PIM2 is 9.9 nM; on PDGFRaV561D kinase, 400 nM; on PKCα (setting [1]), over 10000 nM; on FGFR3 kinase it was over 10000 nM.

With `CC(C)[C@@H]1C[C@H](N)C[C@H](c2ccncc2NC(=O)c2nc(-c3ccccc3)cnc2N)O1` [Example 291, 3-amino-N-(4-((2R,4S,6S)-4-amino-6-isopropyltetrahydro-2H-pyran-2-yl)pyridin-3-yl)-6-phenylpyrazine-2-carboxamide], the IC50 on PIM2 came to 19.3 nM; at PDGFRaV561D kinase it was 81 nM; at PKCα (setting [1]), 43 nM; against FGFR3 kinase, 1600 nM.

Regarding `CC(C)[C@H]1C[C@@H](N)C[C@@H](c2ccncc2NC(=O)c2nc(-c3ccccc3)cnc2N)O1` [Example 292, 3-amino-N-(4-((2S,4R,6R)-4-amino-6-isopropyltetrahydro-2H-pyran-2-yl)pyridin-3-yl)-6-phenylpyrazine-2-carboxamide], the IC50 on PIM2 is 764 nM; on PDGFRaV561D kinase, 4400 nM; on PKCα (setting [1]) it was 100 nM; at FGFR3 kinase, over 10000 nM.

Take `CC1(C)C[C@@H](N)C[C@H](c2ccncc2NC(=O)c2nc(-c3ccccc3)cnc2N)O1` [Example 296, 3-amino-N-(4-((2R,4S)-4-amino-6,6-dimethyltetrahydro-2H-pyran-2-yl)pyridin-3-yl)-6-phenylpyrazine-2-carboxamide]: the 50% inhibitory concentration (IC50) on PIM2 worked out at 283 nM; on PDGFRaV561D kinase, 8.7 nM; on PKCα (setting [1]) it was 40 nM; against FGFR3 kinase, 200 nM.
